Test results published in publication PMC11240139, “Exploring the antitumor potential of novel quinoline derivatives via tubulin polymerization inhibition in breast cancer; design, synthesis and molecular docking” (RSC Advances, 2024).
Entries after “also recorded” stand apart in the source; their conditions may differ.

Columns and labels:
Type in all cases: cell-based
[1] = tested on: β-tubulin mRNA in MDA-MB-231 cells; test: Tubulin expression assay (real-time PCR); conditions: MDA-MB-231, IC50 dose, 48 h, normalized to β-actin
Procedure: The cells were seeded in a six-well plate at a concentration of 3 × 10^5 cells per well. […] The cells were washed, collected and centrifuged at 2500 rpm for 15 min at 4 °C. The total RNA isolation kit (RNeasy extraction kit – QIAGEN) was used to isolate RNA according to the manufacturer's instructions.
Gene expression of β-tubulin was determined using iScript One-Step RT-PCR kit with SYBR Green (BIORAD) according to the manufacturer protocol. Primers sequences used for qPCR are illustrated in (Table 5). The genes expression was normalized to β-actin as the housekeeping gene. The protocol used was cDNA synthesis for 10 min at 50 °C, iScript Reverse transcriptase inactivation for 5 min at 95 °C and PCR cycling and detection (30 to 45 cycles): 10 s at 95 °C and 30 s at 55 °C to 60 °C.

SR (leukemia) = test: NCI-60 SRB cytotoxicity screen
PC-3 (prostate cancer) = test: NCI-60 SRB cytotoxicity screen
HCC-2998 (colon cancer) = test: NCI-60 SRB cytotoxicity screen
[2] = tested on: EKVX (non-small cell lung cancer); test: NCI-60 SRB cytotoxicity screen
ACHN (renal cancer) = test: NCI-60 SRB cytotoxicity screen
UACC-257 (melanoma) = test: NCI-60 SRB cytotoxicity screen
SK-OV-3 (ovarian cancer) = test: NCI-60 SRB cytotoxicity screen
UACC-62 (melanoma) = test: NCI-60 SRB cytotoxicity screen
SF-295 (CNS cancer) = test: NCI-60 SRB cytotoxicity screen
RPMI-8226 (leukemia) = test: NCI-60 SRB cytotoxicity screen
[3] = tested on: NCI-H460 (non-small cell lung cancer); test: NCI-60 SRB cytotoxicity screen
OVCAR-4 (ovarian cancer) = test: NCI-60 SRB cytotoxicity screen
HL-60(TB) (leukemia) = test: NCI-60 SRB cytotoxicity screen
[4] = tested on: NCI-H522 (non-small cell lung cancer); test: NCI-60 SRB cytotoxicity screen
[5] = tested on: HOP-92 (non-small cell lung cancer); test: NCI-60 SRB cytotoxicity screen
[6] = Homo sapiens, HCC-2998, five-dose assay
[7] = Homo sapiens, single dose 10 μM, read-out: growth inhibition (GI%)
[8] = Homo sapiens, UACC-257, five-dose assay
[9] = Homo sapiens, SF-295, five-dose assay
[10] = Homo sapiens, NCI-H460, five-dose assay
[11] = Homo sapiens, NCI-H522, five-dose assay
[12] = Homo sapiens, HOP-92, five-dose assay

## CCc1cccc2cc(-c3cc(-c4cc(OC)c(OC)c(OC)c4)[nH]c(=O)c3C#N)c(Cl)nc12 [Compound 4c, 4-(2-Chloro-8-ethylquinolin-3-yl)-2-oxo-6-(3,4,5-trimethoxyphenyl)-1,2-dihydropyridine-3-carbonitrile]
[1]
  β-tubulin mRNA levels (relative gene expression) vs non-treated cells: notably reduced; also recorded: significantly suppressed; also recorded: markedly reduced
SR (leukemia); five-dose assay
  GI50: 5.7 µM
  LC50: > 100 µM
  TGI: >100 µM
SR (leukemia); single dose 10 μM, read-out: growth inhibition (GI%)
  inhibition at 10 µM: 77.3%
PC-3 (prostate cancer); PC-3, five-dose assay
  GI50: 40.3 µM
  TGI: >100 µM
PC-3 (prostate cancer); PC-3, five-dose assay, read-out: LC50 (the source's name)
  CC50: > 100 µM
PC-3 (prostate cancer); PC-3, single dose 10 μM, read-out: growth inhibition (GI%)
  inhibition at 10 µM: 67.6%
HCC-2998 (colon cancer); HCC-2998, five-dose assay
  TGI: >100 µM
HCC-2998 (colon cancer); [6]
  GI50: 35.7 µM
  LC50 (50% lethal concentration): > 100 µM
HCC-2998 (colon cancer); Homo sapiens, HCC-2998, single dose 10 μM, read-out: growth inhibition (GI%)
  inhibition at 10 µM: 47%
[2]; Homo sapiens, five-dose assay
  GI50: 28.6 µM
[2]; Homo sapiens, five-dose assay, read-out: LC50 (the source's name)
  CC50: > 100 µM
[2]; [7]
  inhibition at 10 µM: 50.1%
[2]; five-dose assay
  TGI: >100 µM
ACHN (renal cancer); Homo sapiens, five-dose assay
  GI50: 15.6 µM
  LC50: 61.8 µM
ACHN (renal cancer); [7]
  inhibition at 10 µM: 75.7%
ACHN (renal cancer); five-dose assay
  TGI: 31.00 µM
UACC-257 (melanoma); [8]
  GI50: 42.6 µM
  LC50: > 100 µM
UACC-257 (melanoma); Homo sapiens, UACC-257, single dose 10 μM, read-out: growth inhibition (GI%)
  inhibition at 10 µM: 26.5%
UACC-257 (melanoma); UACC-257, five-dose assay
  TGI: >100 µM
SK-OV-3 (ovarian cancer); Homo sapiens, SK-OV-3, five-dose assay
  GI50: 26 µM
SK-OV-3 (ovarian cancer); Homo sapiens, SK-OV-3, five-dose assay, read-out: LC50 (the source's name)
  CC50: > 100 µM
SK-OV-3 (ovarian cancer); Homo sapiens, SK-OV-3, single dose 10 μM, read-out: growth inhibition (GI%)
  inhibition at 10 µM: 61.4%
SK-OV-3 (ovarian cancer); SK-OV-3, five-dose assay
  TGI: >100 µM
UACC-62 (melanoma); Homo sapiens, UACC-62, five-dose assay
  GI50: 17.5 µM
UACC-62 (melanoma); Homo sapiens, UACC-62, five-dose assay, read-out: LC50 (the source's name)
  CC50: > 100 µM
UACC-62 (melanoma); Homo sapiens, UACC-62, single dose 10 μM, read-out: growth inhibition (GI%)
  inhibition at 10 µM: > 100%
UACC-62 (melanoma); UACC-62, five-dose assay
  TGI: 60.10 µM
UACC-62 (melanoma); UACC-62, single dose 10 μM
  growth inhibition (GI%): lethal effect
SF-295 (CNS cancer); [9]
  GI50: 19.4 µM
  LC50: > 100 µM
SF-295 (CNS cancer); Homo sapiens, SF-295, single dose 10 μM, read-out: growth inhibition (GI%)
  inhibition at 10 µM: 96.4%
SF-295 (CNS cancer); SF-295, five-dose assay
  TGI: >100 µM
RPMI-8226 (leukemia); Homo sapiens, RPMI-8226, five-dose assay
  GI50: 5.16 µM
RPMI-8226 (leukemia); Homo sapiens, RPMI-8226, five-dose assay, read-out: LC50 (the source's name)
  CC50: > 100 µM
RPMI-8226 (leukemia); Homo sapiens, RPMI-8226, single dose 10 μM, read-out: growth inhibition (GI%)
  inhibition at 10 µM: 74.5%
RPMI-8226 (leukemia); RPMI-8226, five-dose assay
  TGI: >100 µM
[3]; [10]
  GI50: 16.1 µM
  LC50 (50% lethal concentration): > 100 µM
[3]; Homo sapiens, NCI-H460, single dose 10 μM, read-out: growth inhibition (GI%)
  inhibition at 10 µM: 58.6%
[3]; NCI-H460, five-dose assay
  TGI: 41.80 µM
OVCAR-4 (ovarian cancer); Homo sapiens, OVCAR-4, five-dose assay
  GI50: 17.2 µM
OVCAR-4 (ovarian cancer); Homo sapiens, OVCAR-4, five-dose assay, read-out: LC50 (the source's name)
  CC50: > 100 µM
OVCAR-4 (ovarian cancer); Homo sapiens, OVCAR-4, single dose 10 μM, read-out: growth inhibition (GI%)
  inhibition at 10 µM: > 100%
OVCAR-4 (ovarian cancer); OVCAR-4, five-dose assay
  TGI: >100 µM
OVCAR-4 (ovarian cancer); OVCAR-4, single dose 10 μM
  growth inhibition (GI%): lethal effect
HL-60(TB) (leukemia); Homo sapiens, five-dose assay
  GI50: 13.4 µM
  LC50: > 100 µM
HL-60(TB) (leukemia); [7]
  inhibition at 10 µM: 71.3%
HL-60(TB) (leukemia); five-dose assay
  TGI: >100 µM
[4]; [11]
  GI50: 19.1 µM
  LC50 (concentration causing 50% net cell kill): > 100 µM
[4]; Homo sapiens, NCI-H522, single dose 10 μM, read-out: growth inhibition (GI%)
  inhibition at 10 µM: > 100%
[4]; NCI-H522, five-dose assay
  TGI: >100 µM
[4]; NCI-H522, single dose 10 μM
  growth inhibition (GI%): lethal effect
[5]; HOP-92, five-dose assay
  TGI: 9.68 µM
[5]; HOP-92, single dose 10 μM
  growth inhibition (GI%): lethal effect
[5]; [12]
  GI50: 2.37 µM
  LC50 (lethal concentration 50): > 100 µM
[5]; Homo sapiens, HOP-92, single dose 10 μM, read-out: growth inhibition (GI%)
  inhibition at 10 µM: > 100%
